In BindingDB's records for doi:10.7270/Q2D798VP (Broad Institute, 2009):

Target: T1, Zinc finger protein mex-5 (Caenorhabditis elegans, UniProt Q9XUB2)
T1 sequence (Q9XUB2 whole entry): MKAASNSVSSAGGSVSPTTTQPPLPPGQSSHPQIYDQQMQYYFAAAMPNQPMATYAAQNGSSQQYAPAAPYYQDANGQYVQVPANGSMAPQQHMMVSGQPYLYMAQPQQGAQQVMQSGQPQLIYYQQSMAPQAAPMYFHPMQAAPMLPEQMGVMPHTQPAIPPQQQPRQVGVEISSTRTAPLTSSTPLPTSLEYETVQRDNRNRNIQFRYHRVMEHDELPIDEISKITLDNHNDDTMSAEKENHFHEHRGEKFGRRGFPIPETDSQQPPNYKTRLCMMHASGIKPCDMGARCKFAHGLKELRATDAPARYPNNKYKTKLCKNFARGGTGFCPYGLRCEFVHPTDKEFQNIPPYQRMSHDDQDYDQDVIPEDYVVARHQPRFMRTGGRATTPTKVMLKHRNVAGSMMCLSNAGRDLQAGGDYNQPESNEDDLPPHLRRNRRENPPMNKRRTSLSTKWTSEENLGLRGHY
Experiment: MEX-5/TCR-2 RNA interaction inhibitors, dose response, biochemical, C. elegans, fluorescence polarization (AID 1960)

Cc1ccc2oc(=O)c(CC(=O)c3cccs3)nc2c1 [(3Z)-3-[2-keto-2-(2-thienyl)ethylidene]-6-methyl-4H-1,4-benzoxazin-2-one]
EC50: 6.82 µM

Cc1ccc(C(=O)Cc2nc3cc(C)ccc3oc2=O)cc1 [(3Z)-3-[2-keto-2-(p-tolyl)ethylidene]-6-methyl-4H-1,4-benzoxazin-2-one]
EC50: 1.64 µM

Cc1ccc(NC=C2SC(=O)c3ccccc32)c(C)c1 [(3Z)-3-[(2,4-dimethylanilino)methylene]isobenzothiophen-1-one]
EC50: > 300 µM

O=C(Cc1nc2ccccc2n(-c2ccccc2)c1=O)c1ccccc1 [(3Z)-3-phenacylidene-1-phenyl-4H-quinoxalin-2-one]
EC50: 6.1 µM

O=C(Cc1nc2cc(Cl)ccc2oc1=O)c1cccs1 [(3Z)-6-chloranyl-3-(2-oxidanylidene-2-thiophen-2-yl-ethylidene)-4H-1,4-benzoxazin-2-one]
EC50: 153 µM

O=C(Cc1nc2cc(Cl)ccc2oc1=O)c1ccco1 [(3Z)-6-chloranyl-3-[2-(furan-2-yl)-2-oxidanylidene-ethylidene]-4H-1,4-benzoxazin-2-one]
EC50: > 300 µM

CN=c1scc(C)n1N=Cc1ccc(O)c(O)c1O [(4E)-2,3-dihydroxy-4-[[(4-methyl-2-methylimino-1,3-thiazol-3-yl)amino]methylidene]cyclohexa-2,5-dien-1-one]
EC50: 67.1 µM

Cc1c(NC=C2C(=O)N(C)C(=O)c3ccccc32)c(=O)n(-c2ccccc2)n1C [(4E)-4-[[(1,5-dimethyl-3-oxo-2-phenyl-4-pyrazolyl)amino]methylidene]-2-methylisoquinoline-1,3-dione]
EC50: > 300 µM

Cc1nnc(SC(C(=O)O)=C2C(=O)Nc3ccccc32)[nH]1 [(5-Methyl-4H-[1,2,4]triazol-3-ylsulfanyl)-[2-oxo-1,2-dihydro-indol-(3E)-ylidene]-acetic acid]
EC50: 25.2 µM

COc1ccc(OC)c(N2C(=O)NC(=O)C(=Cc3c[nH]c4ccccc34)C2=O)c1 [(5E)-1-(2,5-dimethoxyphenyl)-5-(1H-indol-3-ylmethylene)pyrimidine-2,4,6(1H,3H,5H)-trione]
EC50: > 300 µM

O=C1NC(=O)N(Cc2ccccc2Cl)C(=O)C1=CNc1ccc(F)cc1 [(5E)-1-(2-chlorobenzyl)-5-[(4-fluoroanilino)methylene]barbituric acid]
EC50: > 300 µM

Cc1c(NC=C2C(=O)NC(=O)N(Cc3ccco3)C2=O)c(=O)n(-c2ccccc2)n1C [(5E)-1-(2-furfuryl)-5-[[(3-keto-1,5-dimethyl-2-phenyl-3-pyrazolin-4-yl)amino]methylene]barbituric acid]
EC50: > 300 µM

C=c1c(C(=O)OC)c(O)c(=Cc2cccs2)n1-c1ccc(Cl)cc1 [(5E)-1-(4-chlorophenyl)-2-methyl-4-oxo-5-(thiophen-2-ylmethylidene)-3-pyrrolecarboxylic acid methyl ester]
EC50: > 300 µM

Cc1cc(C=C2C(=O)NC(=O)N(c3ccc(Cl)cc3)C2=O)c(C)n1C [(5E)-1-(4-chlorophenyl)-5-[(1,2,5-trimethyl-3-pyrrolyl)methylidene]-1,3-diazinane-2,4,6-trione]
EC50: 47.7 µM

CCOc1ccc(N2C(=O)NC(=O)C(=Cc3c[nH]c4ccccc34)C2=O)cc1 [(5E)-1-(4-ethoxyphenyl)-5-(1H-indol-3-ylmethylidene)-1,3-diazinane-2,4,6-trione]
EC50: 47 µM

O=C1NC(=O)N(CCc2ccc(F)cc2)C(=O)C1=CNCCCn1ccnc1 [(5E)-1-[2-(4-fluorophenyl)ethyl]-5-[(3-imidazol-1-ylpropylamino)methylene]barbituric acid]
EC50: > 300 µM

C=CCN1C(=O)NC(=O)C(=CNc2ccc(N(CC)CC)cc2)C1=O [(5E)-1-allyl-5-[[4-(diethylamino)anilino]methylene]barbituric acid]
EC50: 113 µM

CCN(CC)c1ccc(NC=C2C(=O)NC(=O)N(Cc3ccccc3)C2=O)cc1 [(5E)-1-benzyl-5-[[4-(diethylamino)anilino]methylene]barbituric acid]
EC50: > 300 µM

O=C1NC(=O)N(Cc2ccccc2)C(=O)C1=CNc1ccc(CN2CCOCC2)cc1 [(5E)-1-benzyl-5-[[4-(morpholin-4-ylmethyl)anilino]methylidene]-1,3-diazinane-2,4,6-trione]
EC50: > 300 µM

Cc1c(NC=C2C(=O)NC(=O)N(Cc3ccccc3)C2=O)c(=O)n(-c2ccccc2)n1C [(5E)-1-benzyl-5-[[(1,5-dimethyl-3-oxo-2-phenylpyrazol-4-yl)amino]methylidene]-1,3-diazinane-2,4,6-trione]
EC50: > 300 µM

CCCCCCN1C(=O)NC(=O)C(=CNCCCn2ccnc2)C1=O [(5E)-1-hexyl-5-[[3-(1-imidazolyl)propylamino]methylidene]-1,3-diazinane-2,4,6-trione]
EC50: > 300 µM

O=C1NC(=S)N(c2ccccc2)C(=O)C1=Cc1ccco1 [(5E)-5-(2-furanylmethylidene)-1-phenyl-2-sulfanylidene-1,3-diazinane-4,6-dione]
EC50: 254 µM

O=C1NC(=O)N(CCc2ccccc2)C(=O)C1=CNCCCn1ccnc1 [(5E)-5-[(3-imidazol-1-ylpropylamino)methylene]-1-phenethyl-barbituric acid]
EC50: > 300 µM

COc1ccc(N2C(=O)NC(=O)C(=Cc3c[nH]c4ccc(Br)cc34)C2=O)c(OC)c1 [(5E)-5-[(5-bromo-1H-indol-3-yl)methylene]-1-(2,4-dimethoxyphenyl)pyrimidine-2,4,6(1H,3H,5H)-trione]
EC50: > 300 µM

CCN(CC)CCNC=C1C(=O)NC(=O)N(CCc2ccccc2)C1=O [(5E)-5-[[2-(diethylamino)ethylamino]methylene]-1-phenethyl-barbituric acid]
EC50: > 300 µM

CN(C)CCCNC=C1C(=O)NC(=O)N(CCc2ccc(F)cc2)C1=O [(5E)-5-[[3-(dimethylamino)propylamino]methylene]-1-[2-(4-fluorophenyl)ethyl]barbituric acid]
EC50: > 300 µM

CN(C)c1ccc(NC=C2C(=O)NC(=O)N(CCC3=CCCCC3)C2=O)cc1 [(5Z)-1-[2-(cyclohexen-1-yl)ethyl]-5-[[[4-(dimethylamino)phenyl]amino]methylidene]-1,3-diazinane-2,4,6-trione]
EC50: > 300 µM

CCN(CC)CCNC=C1C(=O)NC(=O)N(Cc2ccccc2)C1=O [(5Z)-1-benzyl-5-[[2-(diethylamino)ethylamino]methylene]barbituric acid]
EC50: > 300 µM

CCOC(=O)C1C(=O)C(=Cc2cn(CC(=O)N3CCCC3)c3ccccc23)S/C1=N\c1ccccc1 (stereo unspecified) [(5Z)-2-anilino-4-keto-5-[[1-(2-keto-2-pyrrolidino-ethyl)indol-3-yl]methylene]thiophene-3-carboxylic acid ethyl ester]
EC50: 26.2 µM

C/N=C1/S/C(=C\c2ccc(N3CCCC3)c(F)c2)C(=O)N1C [(5Z)-5-(3-fluoro-4-pyrrolidino-benzylidene)-3-methyl-2-methylimino-thiazolidin-4-one]
EC50: 8.89 µM

CC1=C(C#N)C(=O)N(C)C(=O)C1=CN [(5Z)-5-(aminomethylidene)-1,4-dimethyl-2,6-dioxopyridine-3-carbonitrile]
EC50: > 300 µM

C=CCN1C(=O)NC(=O)C(=CCC=Nc2ccccc2)C1=O [(5Z)-5-[(E)-3-phenylazanylprop-2-enylidene]-1-prop-2-enyl-1,3-diazinane-2,4,6-trione]
EC50: > 300 µM

COc1cccc(CN=Nc2ncnc(N)c2[N+](=O)[O-])c1OC [(6-amino-5-nitro-pyrimidin-4-yl)-[(2,3-dimethoxybenzylidene)amino]amine]
EC50: > 300 µM

C=CCc1cccc(C=Nn2cnnc2)c1O [(6E)-2-allyl-6-[(1,2,4-triazol-4-ylamino)methylene]cyclohexa-2,4-dien-1-one]
EC50: 238 µM

COc1ccc(N=Cc2cc3c(cc2O)OC(=N)C(C#N)C3c2ccccc2)cc1 (stereo unspecified) [(6E)-2-amino-6-[(4-methoxyanilino)methylidene]-7-oxo-4-phenyl-4H-1-benzopyran-3-carbonitrile]
EC50: > 300 µM

Cc1n[nH]c(C)c1Sc1ccccc1/N=C/C1C=C(Cl)C=C([N+](=O)[O-])C1=O (stereo unspecified) [(6E)-4-chloranyl-6-[[[2-[(3,5-dimethyl-1H-pyrazol-4-yl)sulfanyl]phenyl]amino]methylidene]-2-nitro-cyclohexa-2,4-dien-1-one]
EC50: 7.57 µM

CCOc1cc(C=C2C(=N)N3N=C(S(C)(=O)=O)SC3=NC2=O)ccc1OCCOc1cccc(OC)c1 [(6E)-6-[[3-ethoxy-4-[2-(3-methoxyphenoxy)ethoxy]phenyl]methylidene]-5-imino-2-methylsulfonyl-[1,3,4]thiadiazolo[3,2-a]pyrimidin-7-one]
EC50: 221 µM

C=CC1=C(C(=O)O)N2C(=O)[C@@H](NC(=O)C(N=O)c3csc(N)n3)[C@H]2SC1 (stereo partly drawn) [(6R,7R)-7-[[2-(2-azanyl-1,3-thiazol-4-yl)-2-hydroxyimino-ethanoyl]amino]-3-ethenyl-8-oxidanylidene-5-thia-1-azabicyclo[4.2.0]oct-2-ene-2-carboxylic acid]
EC50: 33.3 µM

CCn1nc(C)c(C=C2CCCC3=C2OC(=N)C(C#N)C3c2c(C)nn(CC)c2C)c1C (stereo unspecified) [(8E)-2-amino-4-(1-ethyl-3,5-dimethyl-1H-pyrazol-4-yl)-8-[(1-ethyl-3,5-dimethyl-1H-pyrazol-4-yl)methylene]-5,6,7,8-tetrahydro-4H-chromene-3-carbonitrile]
EC50: 51.8 µM

CCOC(=O)N1CCC2=C(C#N)C(=N)C(C#N)(C#N)[C@H](c3ccsc3)[C@H]2C1 [(8R,8aR)-6-amino-5,7,7-tricyano-8-(3-thienyl)-1,3,8,8a-tetrahydroisoquinoline-2-carboxylic acid ethyl ester]
EC50: 58.7 µM

N#CC1=C2CCOC[C@@H]2[C@@H](c2ccsc2)C(C#N)(C#N)C1=N [(8R,8aR)-6-amino-8-(3-thienyl)-1,3,8,8a-tetrahydroisochromene-5,7,7-tricarbonitrile]
EC50: > 300 µM
